Data from ChEMBL document CHEMBL5042532, “Discovery of N-(4-(Benzyloxy)-phenyl)-sulfonamide Derivatives as Novel Antagonists of the Human Androgen Receptor Targeting the Activation Function 2” (J Med Chem, 2022).

Legend:
Androgen receptor = biological target: T1, Androgen receptor (Homo sapiens, UniProt P10275); experiment: Antagonist activity against human androgen receptor expressed in human LNCap cells trasfected with ARR2PB-eGFP cells incubated for 3 days by fluorescence based AR transcription assay; type: cell-based
T1 sequence (P10275 whole entry): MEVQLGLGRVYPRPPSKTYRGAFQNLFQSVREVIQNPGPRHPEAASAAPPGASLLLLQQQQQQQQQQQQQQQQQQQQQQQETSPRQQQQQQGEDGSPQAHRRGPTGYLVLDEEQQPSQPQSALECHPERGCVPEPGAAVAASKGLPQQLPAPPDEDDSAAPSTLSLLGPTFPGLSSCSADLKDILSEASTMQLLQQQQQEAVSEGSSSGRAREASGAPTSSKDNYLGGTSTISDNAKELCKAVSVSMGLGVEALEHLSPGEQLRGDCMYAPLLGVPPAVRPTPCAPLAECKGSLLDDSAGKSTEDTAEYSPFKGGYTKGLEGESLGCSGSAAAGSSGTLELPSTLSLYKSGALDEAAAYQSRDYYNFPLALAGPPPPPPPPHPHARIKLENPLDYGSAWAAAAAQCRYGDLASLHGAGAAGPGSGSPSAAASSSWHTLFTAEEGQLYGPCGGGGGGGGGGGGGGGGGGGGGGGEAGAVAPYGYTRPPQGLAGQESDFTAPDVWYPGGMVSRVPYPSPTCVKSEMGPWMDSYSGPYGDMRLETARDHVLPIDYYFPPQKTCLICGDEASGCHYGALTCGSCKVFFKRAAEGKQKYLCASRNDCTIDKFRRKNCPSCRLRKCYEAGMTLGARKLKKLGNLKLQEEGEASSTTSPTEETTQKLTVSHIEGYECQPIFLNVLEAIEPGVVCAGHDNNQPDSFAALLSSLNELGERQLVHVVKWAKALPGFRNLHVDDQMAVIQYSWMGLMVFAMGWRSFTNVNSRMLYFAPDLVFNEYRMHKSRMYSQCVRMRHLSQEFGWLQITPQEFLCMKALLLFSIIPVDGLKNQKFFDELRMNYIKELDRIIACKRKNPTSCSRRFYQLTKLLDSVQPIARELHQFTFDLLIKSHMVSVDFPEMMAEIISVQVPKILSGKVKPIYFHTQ

NIH3T3 = experiment: Cytotoxicity against mouse NIH3T3 cells assessed as reduction in cell viability at 100 uM incubated for 4 hrs by MTT assay; type: toxicity, cell-based; settings: nih3t3, 4 h
[1] = Toxicity in CB17 SCID mouse xenografted with human LNCaP cells assessed as decrease in body weight at 2.5 mg/kg,IT(Intratumoral) administered once in every week for 25 days […]; type: organism-based; settings: in vivo, other, 600 h, time 25 day
[2] = Inhibition of prostate specific antigen expression in human LNCaP cells expressing ARR2PB-eGFP by immunoassay
[3] = Cmax in CB17-SCID mouse mouse at 50 mg/kg, iv; type: ADME, organism-based; design: route intravenous, dose 50 mg/kg; settings: in vivo
[4] = Half life in CB17-SCID mouse mouse at 50 mg/kg, iv; type: ADME, organism-based; settings: in vivo
[5] = Volume of distribution in CB17-SCID mouse mouse at 50 mg/kg, iv; type: ADME, organism-based; settings: in vivo
[6] = Clearance in CB17-SCID mouse mouse at 50 mg/kg, iv; type: ADME, organism-based; settings: in vivo

Row | Compound | IC50 (Androgen receptor) [µM] | further results
1 | O=S(=O)(Nc1ccc(OCc2ccccc2)cc1)c1ccccc1 |  | Activity (NIH3T3): Toxic
2 | CNC(=O)c1ccc(N2C(=S)N(c3ccc(C#N)c(C(F)(F)F)c3)C(=O)C2(C)C)cc1F [ENZALUTAMIDE] |  | Activity [1]: Toxic; IC50 [2]: 0.1 µM
3 | CN(C)S(=O)(=O)Nc1ccc(OCc2ccccc2)cc1 |  | Activity (NIH3T3): Non-Toxic; Activity [1]: Toxic; Cmax [3]: 890 ng/mL; half-life [4]: 1.52 h; Vd [5]: 2.99 L/kg; clearance [6]: 366 mL/min/kg
4 | COC(=O)c1sccc1S(=O)(=O)Nc1ccc(OCc2ccccc2)cc1 | > 50 | 
5 | CC1NC(=O)NC(=O)C1S(=O)(=O)Nc1ccc(OCc2ccccc2)cc1 (stereo not drawn) | > 50 | 
6 | O=S(=O)(Cc1ccccc1)Nc1ccc(OCc2ccccc2)cc1 |  | Activity (NIH3T3): Non-Toxic
7 | O=[N+]([O-])c1ccc(CS(=O)(=O)Nc2ccc(OCc3ccccc3)cc2)cc1 | > 50 | 
8 | CCOC(=O)c1cn[nH]c1S(=O)(=O)Nc1ccc(OCc2ccccc2)cc1 | > 50 | 
9 | O=S(=O)(Cc1ccc(Cl)cc1)Nc1ccc(OCc2ccccc2)cc1 | > 50 | 
10 | COc1ccc(CS(=O)(=O)Nc2ccc(OCc3ccccc3)cc2)cc1 | > 50 | 
11 | CC(=O)c1ccc(S(=O)(=O)Nc2ccc(OCc3ccccc3)cc2)cc1 | > 50 | 
12 | Cn1c(=O)n(C)c2cc(S(=O)(=O)Nc3ccc(OCc4ccccc4)cc3)ccc21 | > 50 | 

The next lines start with results.

Row | IC50 (Androgen receptor) [µM] | Compound | further results
13 | > 50 | CC(C)CS(=O)(=O)Nc1ccc(OCc2ccccc2)cc1 | 
14 | > 50 | CC(=O)N1c2cc(S(=O)(=O)Nc3ccc(OCc4ccccc4)cc3)c(Br)cc2CC1C (stereo not drawn) | 
15 | > 50 | CC(=O)Nc1ccc(S(=O)(=O)Nc2ccc(OCc3ccccc3)cc2)cc1 | 
16 | > 50 | Cc1cc(C)c(S(=O)(=O)Nc2ccc(OCc3ccccc3)cc2)c(C)c1 | 
17 | 11.5 | Cc1ccc(S(=O)(=O)Nc2ccc(OCc3ccccc3)cc2)cc1 | 
